Where two headings read alike, the source gives them in different places. A value given as a limit tells only on which side of the number the result lay.

We go through 18 compounds from patent US8846951B2 (AbbVie Inc., priority 2009, dated 2014).

One assay has as its target T1, 5HT2B receptors (Homo sapiens, UniProt P41595).
T1 construct: expressed in transfected cells; host or cells: CHO-K1 cells
In words: Human 5-HT2B functional high throughput screening assay in CHO-K1 cells (calcium flux). The assay is classed as cell-based. As to conditions: for EC50: CHO-K1 cells, calcium flux; call rule not given here. The method, then:
(§1) (iii) Human 5-HT2C and 5-HT2B Functional High Throughput Screening Assays in CHO-K1 Cells
(§2) CHO-K1 cells over-expressing 5HT2C or 5HT2B receptors were grown in 1272 cm^2 flasks to 70-80% confluency in UltraCHO media (Lonza, Walkersville, Md.) supplemented with 1% dialyzed fetal bovine serum (FBS), 250 μg/mL zeocin, 100 U/mL penicillin and 100 μg/mL streptomycin, and 400 μg/mL geneticin. The cells were dissociated from the flasks using 0.05% trypsin, resuspended in Recovery™ cell culture freezing medium (Invitrogen, Carlsbad, Calif.) and stored in liquid nitrogen until use. The calcium flux experiments were done using frozen cells. The cells were diluted in media containing 1% dialyzed FBS and 100 U/mL penicillin and 100 μg/mL streptomycin and plated into 384-well poly-D-Lysine coated plates (15,000 cells/well). Then the plates were incubated overnight in a cell incubator at 37° C., 5% CO2. On the next day, the growth media was replaced with media without FBS and further incubated overnight. On day three, the changes in intracellular Ca^2+ were determined using calcium sensitive fluorescent dye, Ca4 (MDS Analytical Technologies, Sunnyvale, Calif.) by loading 15 μL of diluted dye in Hank's Balanced Salt Solution and 20 mM Hepes buffer (pH 7.4) with final concentration of 2.5 mM probenecid into the cells containing media. Then the cells were incubated at room temperature for 60 minutes in dark.
(§3) After incubation, the cell plates were transferred to FLIPR™ (MDS) and their fluorescence measurements were read at an excitation wavelength of 480 nm and an emission wavelength of 530 nm at 25° C. The baseline fluorescence was measured for the first 10 seconds and then 15 μL of 4× concentration of serotonin/test compound was added to the cells. The fluorescence intensity was captured every second for the first 1 minute followed by every 5 seconds for an additional 2 minutes. The increase in fluorescent response by a test compound was normalized to the response of serotonin and used to determine agonist activity. The concentration response of compounds was done from a starting concentration of 10 μM, 1:10 dilution across 6 wells with a final dimethyl sulfoxide concentration of 0.2% and was fitted using a 4-parameter logistic equation. The concentration at which a compound exerts half its maximal effect was named as ‘effective concentration 50’ or ‘EC50’. Emax is the maximum functional response or efficacy expressed as a percentage relative to the effect of serotonin.
On the technique in general: Calcium assays in cells follow changes in intracellular calcium, usually with a dye or a luminescent sensor.

Another assay deals with T2, 5HT2C receptors (Homo sapiens, UniProt P28335).
T2 sequence (P28335 33-458): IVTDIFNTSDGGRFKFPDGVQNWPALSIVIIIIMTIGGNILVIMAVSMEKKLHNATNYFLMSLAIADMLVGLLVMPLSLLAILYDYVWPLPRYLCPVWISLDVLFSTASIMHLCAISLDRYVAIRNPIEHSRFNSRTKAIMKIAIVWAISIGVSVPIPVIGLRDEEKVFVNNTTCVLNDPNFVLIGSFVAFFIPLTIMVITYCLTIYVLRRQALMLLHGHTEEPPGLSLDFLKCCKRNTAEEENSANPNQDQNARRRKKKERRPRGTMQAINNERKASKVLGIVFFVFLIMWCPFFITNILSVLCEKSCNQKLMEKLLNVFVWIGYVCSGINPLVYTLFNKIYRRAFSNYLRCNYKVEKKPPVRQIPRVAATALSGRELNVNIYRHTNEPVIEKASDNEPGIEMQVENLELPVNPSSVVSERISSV
In words: Human 5-HT2C functional high throughput screening assay in CHO-K1 cells (calcium flux). As to conditions: for EC50: CHO-K1 cells, calcium flux; for Emax: 5-HT2C, maximum functional response as percentage relative to the effect of serotonin. It is filed as cell-based. More on the design: expressed in transfected cells; host or cells: CHO-K1 cells. The method, then:
as §1, §2, §3

Setting [1] is: 5-HT2B agonist activity, read-out: EC50.
[2] abbreviates: 5-HT2B, maximum functional response as percentage relative to the effect of serotonin.
Where [3] appears, read: 5-HT2C agonist activity, read-out: EC50.

T1 sequence (P41595 whole entry): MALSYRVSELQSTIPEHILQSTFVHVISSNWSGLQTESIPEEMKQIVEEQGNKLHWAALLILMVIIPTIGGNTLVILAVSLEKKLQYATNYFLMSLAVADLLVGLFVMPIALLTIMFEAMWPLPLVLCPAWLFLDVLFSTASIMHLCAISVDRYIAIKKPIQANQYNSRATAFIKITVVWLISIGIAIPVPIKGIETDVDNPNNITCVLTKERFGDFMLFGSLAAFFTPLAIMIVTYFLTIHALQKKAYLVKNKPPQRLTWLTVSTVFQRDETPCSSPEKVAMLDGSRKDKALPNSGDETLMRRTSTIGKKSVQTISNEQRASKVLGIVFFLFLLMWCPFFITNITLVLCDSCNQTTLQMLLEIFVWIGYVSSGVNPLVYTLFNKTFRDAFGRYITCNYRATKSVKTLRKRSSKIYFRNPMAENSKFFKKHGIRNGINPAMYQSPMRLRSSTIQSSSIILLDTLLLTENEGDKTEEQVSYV

As usually defined, the EC50 is the midpoint of the concentration-response curve. The term Emax denotes the size of the effect at its maximum, as opposed to the concentration needed. Take `CN1C[C@H]2CNC(=O)c3cc(-c4cccc(C(C)(C)O)c4)ccc3[C@@H]2C1` (relative stereo) [Example 186, Trans-8-(3-(2-hydroxypropan-2-yl)phenyl)-2-methyl-1,2,3,3a,4,5-hexahydrobenzo[e]pyrrolo[3,4-c]azepin-6(10bH)-one]: the EC50 was > 10000 nM on 5HT2B receptors (setting [1]) and 1 nM on 5HT2C receptors (setting [3]). The Emax entry was “inactive” at 5HT2B receptors (setting [2]) and > 120% on 5HT2C receptors (CHO-K1, read-out: Emax).
`Nc1ccc2c(c1)C(=O)NC[C@@H]1CNC[C@@H]21` (relative stereo) [Example 144, Trans-8-amino-1,2,3,3a,4,5-hexahydrobenzo[e]pyrrolo[3,4-c]azepin-6(10bH)-one]: the results for the Emax on 5HT2B receptors (CHO-K1) and at 5HT2C receptors (CHO-K1) were 60% and > 120%, respectively. Further, the 50% effective concentration (EC50) came to 1000 nM on 5HT2B receptors (EC50, 5-HT2B agonist activity) and 100 nM at 5HT2C receptors (EC50, 5-HT2C agonist activity).
With `CN1CC[C@@H]2CNC[C@H]2c2cccc(Cl)c21` (relative stereo) [Example 375, Trans-7-chloro-6-methyl-1,2,3,3a,4,5,6,10b-octahydropyrrolo[3,4-d][1]benzazepine], the Emax on 5HT2B receptors (CHO-K1) is 95%; on 5HT2C receptors (CHO-K1), 100%. For the same compound, the EC50 on 5HT2B receptors (EC50, 5-HT2B agonist activity) was found to be 10 nM; on 5HT2C receptors (EC50, 5-HT2C agonist activity) it was 0.3 nM.
Regarding `O=S(=O)(c1cccc(Cl)c1)N1Cc2cccnc2[C@@H]2CNC[C@H]2C1` (relative stereo) [Example 359, Trans-6-[(3-chlorophenyl)sulfonyl]-5,6,7,7a,8,9,10,10a-octahydropyrido[3,2-c]pyrrolo[3,4-e]azepine], the Emax at 5HT2B receptors (CHO-K1) stood at 30%; on 5HT2C receptors (CHO-K1), 80%. Further, the EC50 on 5HT2B receptors (EC50, 5-HT2B agonist activity) was 500 nM; on 5HT2C receptors (EC50, 5-HT2C agonist activity), 100 nM.
Take `CN1C[C@H]2CNC(=O)c3cc(C(=O)N4CCCCC4)ccc3[C@@H]2C1` (relative stereo) [Example 122, Trans-2-methyl-8-(piperidine-1-carbonyl)-1,2,3,3a,4,5-hexahydrobenzo[e]pyrrolo[3,4-c]azepin-6(10bH)-one]: the results for the concentration for a half-maximal effect (EC50) at 5HT2B receptors (setting [1]) and on 5HT2C receptors (setting [3]) were > 10000 nM and 6000 nM, respectively. Also, the Emax entry was “inactive” at 5HT2B receptors (setting [2]) and 100% at 5HT2C receptors (CHO-K1, read-out: Emax).
In the case of `CN1C[C@@H]2CN(C)C(=O)c3cc(F)ccc3[C@H]2C1` [Example 163, (3aR,10bS)-8-Fluoro-2,5-dimethyl-1,2,3,3a,4,5-hexahydrobenzo[e]pyrrolo[3,4-c]azepin-6(10bH)-one], the Emax on 5HT2B receptors (CHO-K1) is 20%; on 5HT2C receptors (CHO-K1), > 120%. Further, the EC50 at 5HT2B receptors (EC50, 5-HT2B agonist activity) worked out at 800 nM; at 5HT2C receptors (EC50, 5-HT2C agonist activity) it was 60 nM.
Take `CC(C)COc1ccc2c(c1)C(=O)NC[C@H]1CNC[C@H]21` [Example 308, (3aR-10bS)-8-Isobutoxy-2,3,3a,4,5,10b-hexahydropyrrolo[3,4-d][2]benzazepin-6(1H)-one]: the Emax entry on 5HT2B receptors (setting [2]) was “inactive”; on 5HT2C receptors (CHO-K1), 95%. Besides, the half-maximal effective concentration (EC50) at 5HT2B receptors (EC50, 5-HT2B agonist activity) is > 10000 nM; at 5HT2C receptors (EC50, 5-HT2C agonist activity), 3 nM.
Turning to `O=S1(=O)NC[C@@H]2CNC[C@H]2c2ccccc21` (relative stereo) [Example 111, Trans-2,3,3a,4,5,10b-hexahydro-1H-pyrrolo[3,4-d][1,2]benzothiazepine 6,6-dioxide], the EC50 is > 10000 nM on 5HT2B receptors (setting [1]) and 6000 nM on 5HT2C receptors (setting [3]). In addition, the Emax amounted to 20% on 5HT2B receptors (CHO-K1) and 100% on 5HT2C receptors (CHO-K1).
As for `CC(=O)c1cccc(-c2ccc3c(c2)C(=O)N(C)C[C@@H]2CN(C)C[C@@H]32)c1` (relative stereo) [Example 191, Trans-8-(3-acetylphenyl)-2,5-dimethyl-1,2,3,3a,4,5-hexahydrobenzo[e]pyrrolo[3,4-c]azepin-6(10bH)-one], the EC50 on 5HT2B receptors (setting [1]) was > 10000 nM; on 5HT2C receptors (setting [3]), 40 nM. The Emax result at 5HT2B receptors (setting [2]) was “inactive”; on 5HT2C receptors (CHO-K1, read-out: Emax), 110%.
On to `O=C1NC[C@@H]2CN(Cc3ccccc3)C[C@H]2c2cccnc21` (relative stereo) [Example 154, Trans-2-benzyl-1,2,3,3a,4,5-hexahydropyrido[3,2-e]pyrrolo[3,4-c]azepin-6(10bH)-one], for which the EC50 on 5HT2B receptors (setting [1]) is > 10000 nM; on 5HT2C receptors (setting [3]) it was 2000 nM. The Emax entry on 5HT2B receptors (setting [2]) was “inactive”; at 5HT2C receptors (CHO-K1), 90%.
Take `CN1C[C@H]2CNC(=O)c3cc(-c4ccc(F)cc4F)ccc3[C@@H]2C1` (relative stereo) [Example 331, Trans-8-(2,4-difluorophenyl)-2-methyl-2,3,3a,4,5,10b-hexahydropyrrolo[3,4-d][2]benzazepin-6(1H)-one]: the concentration giving a half-maximal response (EC50) at 5HT2B receptors (setting [1]) is > 10000 nM; on 5HT2C receptors (setting [3]), 200 nM. The Emax result at 5HT2B receptors (setting [2]) is “inactive”; at 5HT2C receptors (CHO-K1, read-out: Emax), 95%.
“Trans-8-(2-methoxyphenethoxy)-2-methyl-1,2,3,3a,4,5-hexahydrobenzo[e]pyrrolo[3,4-c]azepin-6(10bH)-one [Example 183]”: the results for the EC50 at 5HT2B receptors (setting [1]) and on 5HT2C receptors (setting [3]) were > 10000 nM and 40 nM, respectively. Besides, the values for the Emax entry on 5HT2B receptors (setting [2]) and at 5HT2C receptors were “inactive” and 65%, respectively.
Consider `CC(=O)c1cccc(-c2ccc3c(c2)C(=O)NC[C@H]2CN(C)C[C@H]32)c1` [Example 278, (3aS,10bS)-8-(3-Acetylphenyl)-2-methyl-1,2,3,3a,4,5-hexahydrobenzo[e]pyrrolo[3,4-c]azepin-6(10bH)-one], for which the EC50 is > 10000 nM at 5HT2B receptors (setting [1]) and 2 nM at 5HT2C receptors (setting [3]). Moreover, the maximal effect (Emax) entry at 5HT2B receptors (setting [2]) was “inactive”; on 5HT2C receptors (CHO-K1, read-out: Emax) it was 120%.
For `Brc1ccc2c(c1)[C@H]1CNC[C@@H]1CCO2` (relative stereo) [Example 214, Trans-9-bromo-2,3,3a,4,5,10b-hexahydro-1H-[1]benzoxepino[4,5-c]pyrrole], the Emax on 5HT2B receptors (CHO-K1) was 50%; on 5HT2C receptors (CHO-K1), > 120%. The EC50 at 5HT2B receptors (EC50, 5-HT2B agonist activity) was determined as 20 nM; on 5HT2C receptors (EC50, 5-HT2C agonist activity), 2 nM.
For `CN1C[C@@H]2CNC(=O)c3cc(OCc4cccc(F)c4)ccc3[C@H]2C1` [Example 206, (3aS,10bS)-8-(3-Fluorobenzyloxy)-2-methyl-1,2,3,3a,4,5-hexahydrobenzo[e]pyrrolo[3,4-c]azepin-6(10bH)-one], the EC50 at 5HT2B receptors (setting [1]) is > 10000 nM; at 5HT2C receptors (setting [3]) it was 2 nM. Further, the Emax result on 5HT2B receptors (setting [2]) was “inactive”; on 5HT2C receptors (CHO-K1, read-out: Emax) it was > 120%.
`O=S(=O)(c1ccc(OC(F)F)cc1)N1Cc2cccnc2[C@@H]2CNC[C@H]2C1` (relative stereo) [Example 335, Trans-6-{[4-(difluoromethoxy)phenyl]sulfonyl}-5,6,7,7a,8,9,10,10a-octahydropyrido[3,2-e]pyrrolo[3,4-e]azepine]: the 50% effective concentration (EC50) on 5HT2B receptors (setting [1]) was 900 nM; at 5HT2C receptors (setting [3]) it was 20 nM. Moreover, the maximum response (Emax) came out at 25% at 5HT2B receptors (CHO-K1, 5-HT2B, maximum functional response as percentage relative to the effect of serotonin, read-out: Emax) and 85% on 5HT2C receptors (CHO-K1, read-out: Emax).
As to `Nc1ccc2c(c1)C(=O)NC[C@@H]1CN(Cc3ccccc3)C[C@H]21` (relative stereo) [Example 142, Cis-8-amino-2-benzyl-1,2,3,3a,4,5-hexahydrobenzo[e]pyrrolo[3,4-c]azepin-6(10bH)-one], the values for the concentration for a half-maximal effect (EC50) at 5HT2B receptors (setting [1]) and on 5HT2C receptors (setting [3]) were > 10000 nM and 2000 nM, respectively. Moreover, the maximum response (Emax) entry at 5HT2B receptors (setting [2]) was “inactive”; on 5HT2C receptors (CHO-K1, read-out: Emax), 80%.
In the case of `COc1cccc2c1OCC[C@H]1CNC[C@H]21` (relative stereo) [Example 372, Trans-7-methoxy-2,3,3a,4,5,10b-hexahydro-1H-[1]benzoxepino[4,5-c]pyrrole], the EC50 on 5HT2B receptors (setting [1]) is 200 nM; at 5HT2C receptors (setting [3]), 1000 nM. Besides, the figures for the maximum response (Emax) at 5HT2B receptors (CHO-K1) and on 5HT2C receptors (CHO-K1) were 25% and 70%, respectively.
